Common to all, as to type: cell-based
Test [1] concerns human leukemia HL-60 cells. Nature of the test: CCK8 growth inhibition, HL60. The note with it: Homo sapiens, HL-60, CCK8 method; read-out: IC50 of inhibitory activity on tumor cell growth, HL60.
Test [2] deals with A549. Nature of the test: CCK8 growth inhibition, A549. The note with it: Homo sapiens, CCK8 method, read-out: IC50 of inhibitory activity on tumor cell growth, A549.
Test [3] concerns Murine breast cancer 4T1 cells. Nature of the test: CCK8 growth inhibition, 4T1. Conditions: Mus musculus, CCK8 method, 24 hrs (or 36, 72 hrs), read-out: IC50 of inhibitory activity on tumor cell growth, 4T1. As for the experimental part: Murine breast cancer 4T1 cells (Kailian Biotech, KG338) in a logarithmic growth phase were selected and washed with PBS, digested with 0.25% trypsin (including EDTA), stopped digestion with a DMEM complete medium, then centrifuged, and resuspended to form a suspension of 4T1 single cells. Cells were counted using a hemocytometer and a cell concentration was calculated. A DMEM complete medium was used to adjust the cell suspension to a target concentration, and thereafter, the cells were plated on a 96-well cell culture plate according to 4×10^3/100 μL per well. After adherering to the wall, the 4T1 cells were stimulated according to the designed concentration gradients of the series of GY compounds or drugs, with each concentration being provided with 3 replicate holes. The 96-well cell culture plate with 4T1 cells seeded and dosing was placed in the cell incubator, and incubated at 37° C., 5% carbon dioxide for 24 hrs (or 36, 72 hrs). After the incubation time was over, 10 μL of CCK8 reagent was added to each well and incubated for 1-2 hrs at 37° C. A full-wavelength microplate reader was adopted to test an OD value at 450 nm wavelength.
CCK8 calculation formula is as follows: • Cell survival rate (100%)=[…]/(Ac−Ab)×100% • As: Absorbance of wells containing cells, CCK8 solution, and drug solution • Ac: Absorbance of wells containing cells and CCK8 solution, and no drug solution • Ab: Absorbance of wells containing CCK8 solution, no cells, and no drug solution
Cell growth inhibition rate (%)=1−((OD value of experimental group−OD value of blank group)/(OD value of control group−OD value of blank group)×100%).
A general note: Formazan colour is commonly taken as a measure of viable cells.

Test [4] deals with MB231. Nature of the test: CCK8 growth inhibition, MB231. Conditions: CCK8 method; read-out: IC50 of inhibitory activity on tumor cell growth, MB231.

What is called IC50 is the concentration that gives 50% inhibition. Take `CCCCOc1nc(N)c2nc(O)n(Cc3cn(CCOCCOCCOCCN4CCN(CCCNC(=O)CC5N=C(c6ccc(Cl)cc6)c6c(sc(C)c6C)-n6c(C)nnc65)CC4)nn3)c2n1` (stereo not shown) [GY118]: the IC50 turned out to be 15.1 µM in test [1], 16.6 µM in test [2], 14.7 µM in test [3] and 5.8 µM in test [4].

The values are drawn from patent US12440571B2, “Immune agonists” (SHENZHEN UNIVERSITY, priority 2020, dated 2025).
